Experiments:
[1] = test system: Tyk2-pSTAT4 (IL-12 induced pSTAT4); experiment: IL-12 induced pSTAT4 in human PBMC; assay type: cell-based; conditions: Homo sapiens, PBMC, 0.5 h, 1.7 ng/mL IL-12, 30 minutes
Experimental: (§1) Human PBMC are isolated from buffy coat and are stored frozen for assays as needed. Cells for assay are thawed and resuspended in complete media containing serum, then cells are diluted to 1.67 E6 cells/ml so that 120 ul per well is 200,000 cells. 15 ul of compound or DMSO is added to the well at the desired concentrations and incubated at 1 hr at 37 C. 15 ul of stimulus (final concentration of 1.7 ng/mL IL-12) is added for 30 minutes prior to pSTAT4 and total STAT4 analysis using cell lysates prepared and analyzed by MSD reagents as per manufacturer protocol. The final DMSO concentration of compound in the assay is 0.1%.

[2] = molecular target: JAK2 (Homo sapiens (Human), UniProt O60674); experiment: JAK2 radioactive kinase assay; assay type: biochemical; conditions: ATP 10 μM
Experimental: (§2) Peptide substrate, [KKSRGDYMTMQIG], (20 μM) is prepared in reaction buffer (20 mM Hepes pH 7.5, 10 mM MgCl2, 1 mM EGTA, 0.02% Brij35, 0.02 mg/mL BSA, 0.1 mM […], 2 mM DTT, 1% DMSO. TYK2 (Invitrogen) kinase is added, followed by compounds in DMSO. ^33PATP is added to initiate the reaction with ATP at 10 μM. Kinase reaction is incubated for 120 min at room temp and reactions are spotted onto P81 ion exchange paper (Whatman #3698-915), and then washed extensively in 0.75% phosphoric acid, prior to reading the radioactivity counts. For JAK2 (Invitrogen) kinase assay the peptide substrate poly[Glu:Tyr] (4:1), 0.2 mg/ml is used, in the reaction carried out the same as for TYK2.

[3] = test system: JAK2-pSTAT5 (GM-CSF induced pSTAT5); experiment: GM-CSF induced pSTAT5 in human PBMC; assay type: cell-based; conditions: Homo sapiens, PBMC, 20 min, 5 ng/mL GM-CSF
Experimental: as §1
Cells are prepared for analysis as in the above procedure and 15 ul of GM-CSF (final concentration 5 ng/mL) is added for 20 minutes prior to pSTAT5 and total STAT5 analysis using cell lysates prepared and analyzed by MSD reagents as per manufacturer protocol. The final DMSO concentration of compound in the assay is 0.1%.

[4] = molecular target: TYK2 (Homo sapiens (Human), UniProt P29597); experiment: Tyk2 radioactive kinase assay; assay type: biochemical; conditions: ATP 10 μM
Experimental: as §2

Chain of JAK2 (O60674 whole entry): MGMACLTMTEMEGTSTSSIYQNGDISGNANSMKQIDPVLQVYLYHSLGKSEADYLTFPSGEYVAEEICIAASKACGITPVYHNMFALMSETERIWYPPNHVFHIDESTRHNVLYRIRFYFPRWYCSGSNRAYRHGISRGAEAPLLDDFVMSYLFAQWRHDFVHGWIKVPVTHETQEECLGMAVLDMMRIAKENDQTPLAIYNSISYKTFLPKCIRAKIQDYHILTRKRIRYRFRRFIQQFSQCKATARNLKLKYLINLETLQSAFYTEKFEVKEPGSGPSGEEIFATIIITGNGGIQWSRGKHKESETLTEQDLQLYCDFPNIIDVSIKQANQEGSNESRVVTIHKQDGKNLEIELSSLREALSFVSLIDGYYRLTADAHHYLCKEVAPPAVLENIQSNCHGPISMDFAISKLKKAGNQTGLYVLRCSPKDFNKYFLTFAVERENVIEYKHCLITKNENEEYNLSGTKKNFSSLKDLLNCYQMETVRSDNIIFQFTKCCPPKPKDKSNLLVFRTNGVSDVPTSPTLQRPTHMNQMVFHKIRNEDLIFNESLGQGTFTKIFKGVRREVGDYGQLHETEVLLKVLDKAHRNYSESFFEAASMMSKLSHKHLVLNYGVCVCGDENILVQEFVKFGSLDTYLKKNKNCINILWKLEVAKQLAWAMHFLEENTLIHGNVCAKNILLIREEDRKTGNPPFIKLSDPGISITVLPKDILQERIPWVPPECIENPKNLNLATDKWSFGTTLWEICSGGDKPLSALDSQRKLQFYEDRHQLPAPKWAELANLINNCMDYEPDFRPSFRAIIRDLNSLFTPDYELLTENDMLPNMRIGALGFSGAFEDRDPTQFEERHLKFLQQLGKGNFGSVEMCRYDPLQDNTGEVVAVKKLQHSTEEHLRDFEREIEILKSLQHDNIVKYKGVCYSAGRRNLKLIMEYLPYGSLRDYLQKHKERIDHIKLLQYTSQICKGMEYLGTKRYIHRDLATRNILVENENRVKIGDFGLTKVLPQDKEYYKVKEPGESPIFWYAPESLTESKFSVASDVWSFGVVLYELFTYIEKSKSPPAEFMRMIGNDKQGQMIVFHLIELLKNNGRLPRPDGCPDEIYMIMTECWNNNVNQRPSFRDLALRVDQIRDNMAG
Chain of TYK2 (P29597 whole entry): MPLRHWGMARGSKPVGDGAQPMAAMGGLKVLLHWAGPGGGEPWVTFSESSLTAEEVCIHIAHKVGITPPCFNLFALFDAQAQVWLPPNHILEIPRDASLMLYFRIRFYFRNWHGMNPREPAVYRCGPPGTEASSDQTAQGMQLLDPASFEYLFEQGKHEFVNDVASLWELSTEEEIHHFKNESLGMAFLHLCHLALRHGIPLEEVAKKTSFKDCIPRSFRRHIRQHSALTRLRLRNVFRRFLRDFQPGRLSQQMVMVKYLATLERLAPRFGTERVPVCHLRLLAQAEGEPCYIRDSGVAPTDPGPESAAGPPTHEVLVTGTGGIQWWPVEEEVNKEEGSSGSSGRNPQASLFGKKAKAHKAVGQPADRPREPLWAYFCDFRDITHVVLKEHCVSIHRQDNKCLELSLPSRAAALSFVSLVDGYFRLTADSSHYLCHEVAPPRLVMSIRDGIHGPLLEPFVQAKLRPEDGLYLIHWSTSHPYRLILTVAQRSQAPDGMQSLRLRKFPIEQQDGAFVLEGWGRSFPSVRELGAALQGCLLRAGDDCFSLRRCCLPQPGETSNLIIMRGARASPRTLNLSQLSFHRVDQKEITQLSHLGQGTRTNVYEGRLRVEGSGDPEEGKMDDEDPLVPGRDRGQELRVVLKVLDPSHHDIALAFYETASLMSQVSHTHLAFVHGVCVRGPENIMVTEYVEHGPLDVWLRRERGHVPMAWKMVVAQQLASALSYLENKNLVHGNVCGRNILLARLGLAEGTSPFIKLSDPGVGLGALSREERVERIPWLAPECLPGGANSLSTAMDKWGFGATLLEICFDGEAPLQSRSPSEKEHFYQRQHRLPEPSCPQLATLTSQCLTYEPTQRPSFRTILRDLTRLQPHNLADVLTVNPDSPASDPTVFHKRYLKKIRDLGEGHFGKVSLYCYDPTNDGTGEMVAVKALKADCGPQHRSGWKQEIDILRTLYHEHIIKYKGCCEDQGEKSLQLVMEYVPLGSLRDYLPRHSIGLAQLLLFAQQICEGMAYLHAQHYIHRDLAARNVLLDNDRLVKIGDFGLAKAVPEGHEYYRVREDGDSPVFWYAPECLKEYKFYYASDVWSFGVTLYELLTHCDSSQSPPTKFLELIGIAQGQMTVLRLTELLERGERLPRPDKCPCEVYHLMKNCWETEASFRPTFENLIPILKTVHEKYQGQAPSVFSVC

Structure (SMILES)	EC50 [1] [nM]	Ki [2] [nM]	EC50 [3] [nM]	Ki [4] [nM]
N#Cc1cccc(F)c1-c1cc(-n2ccc(N3CCOCC3)n2)c2c(n1)CNC2=O [I-4, 3-fluoro-2-(4-(3-morpholino-1H-pyrazol-1-yl)-5-oxo-6,7-dihydro-5H-pyrrolo[3,4-b]pyridin-2-yl)benzonitrile]	100 to 2000	10 to 100	> 2000	0.1 to 10
CN1CCN(c2ccn(-c3cc(-c4c(F)cccc4C#N)nc4c3C(=O)NC4)n2)CC1 [I-6, 3-fluoro-2-(4-(3-(4-methylpiperazin-1-yl)-1H-pyrazol-1-yl)-5-oxo-6,7-dihydro-5H-pyrrolo[3,4-b]pyridin-2-yl)benzonitrile]	100 to 2000	0.1 to 10	> 2000	0.1 to 10
O=C1NCc2nc(-c3c(F)cccc3F)cc(-n3ccc(N4CCC5(CCOCC5)CC4)n3)c21 [I-9, 4-(3-(3-oxa-9-azaspiro[5.5]undecan-9-yl)-1H-pyrazol-1-yl)-2-(2,6-difluorophenyl)-6,7-dihydro-5H-pyrrolo[3,4-b]pyridin-5-one]	–	100 to 1000	> 2000	0.1 to 10
N#Cc1cccc(F)c1-c1cc(-n2ccc(C3CCOCC3)n2)c2c(n1)CNC2=O [I-16, 3-fluoro-2-(5-oxo-4-(3-(tetrahydro-2H-pyran-4-yl)-1H-pyrazol-1-yl)-6,7-dihydro-5H-pyrrolo[3,4-b]pyridin-2-yl)benzonitrile]	–	100 to 1000	> 2000	0.1 to 10
CC1(C)COC(c2ccn(-c3cc(-c4c(F)cccc4C#N)nc4c3C(=O)NC4)n2)=N1 [I-60, 2-(4-(3-(4,4-dimethyl-4,5-dihydrooxazol-2-yl)-1H-pyrazol-1-yl)-5-oxo-6,7-dihydro-5H-pyrrolo[3,4-b]pyridin-2-yl)-3-fluorobenzonitrile]	–	10 to 100	> 2000	0.1 to 10
N#Cc1cccc(F)c1-c1cc(-n2ccc(N3CCCC(N)C3)n2)c2c(n1)CNC2=O (centres unmarked) [I-68, 2-(4-(3-(3-aminopiperidin-1-yl)-1H-pyrazol-1-yl)-5-oxo-6,7-dihydro-5H-pyrrolo[3,4-b]pyridin-2-yl)-3-fluorobenzonitrile]	–	10 to 100	> 2000	0.1 to 10
N#Cc1cccc(F)c1-c1cc(-n2ccc(N3CCC[C@H](N)C3)n2)c2c(n1)CNC2=O [I-74, (S)-2-(4-(3-(3-aminopiperidin-1-yl)-1H-pyrazol-1-yl)-5-oxo-6,7-dihydro-5H-pyrrolo[3,4-b]pyridin-2-yl)-3-fluorobenzonitrile]	–	10 to 100	> 2000	0.1 to 10
N#Cc1cccc(F)c1-c1cc(-n2cc3c(n2)NCCC3)c2c(n1)CNC2=O [I-75, 3-fluoro-2-(5-oxo-4-(4,5,6,7-tetrahydro-2H-pyrazolo[3,4-b]pyridin-2-yl)-6,7-dihydro-5H-pyrrolo[3,4-b]pyridin-2-yl)benzonitrile]	–	0.1 to 10	> 2000	0.1 to 10
N#Cc1cccc(F)c1-c1cc(-n2ccc(N3CCCC(O)(C(F)(F)F)C3)n2)c2c(n1)CNC2=O (centres unmarked) [I-80, 3-fluoro-2-(4-(3-(3-hydroxy-3-(trifluoromethyl)piperidin-1-yl)-1H-pyrazol-1-yl)-5-oxo-6,7-dihydro-5H-pyrrolo[3,4-b]pyridin-2-yl)benzonitrile]	–	10 to 100	> 2000	0.1 to 10
CC1CC(O)CC(C)N1c1ccn(-c2cc(-c3c(F)cccc3C#N)nc3c2C(=O)NC3)n1 (centres unmarked) [I-85, 3-fluoro-2-(4-(3-(4-hydroxy-2,6-dimethylpiperidin-1-yl)-1H-pyrazol-1-yl)-5-oxo-6,7-dihydro-5H-pyrrolo[3,4-b]pyridin-2-yl)benzonitrile]	–	≥ 1000	> 2000	10 to 100
O=C1NCc2nc(-c3c(F)cccc3F)cc(-n3ccc(N4CCOCC4CO)n3)c21 (centres unmarked) [I-90, 2-(2,6-difluorophenyl)-4-(3-(3-(hydroxymethyl)morpholino)-1H-pyrazol-1-yl)-6,7-dihydro-5H-pyrrolo[3,4-b]pyridin-5-one]	–	100 to 1000	> 2000	0.1 to 10
CC1CCC(O)CN1c1ccn(-c2cc(-c3c(F)cccc3C#N)nc3c2C(=O)NC3)n1 (centres unmarked) [I-96, 3-fluoro-2-(4-(3-(5-hydroxy-2-methylpiperidin-1-yl)-1H-pyrazol-1-yl)-5-oxo-6,7-dihydro-5H-pyrrolo[3,4-b]pyridin-2-yl)benzonitrile]	–	10 to 100	> 2000	0.1 to 10
N#Cc1cccc(F)c1-c1cc(-n2ccc(C3CCCO3)n2)c2c(n1)CNC2=O (centres unmarked) [I-101, 3-fluoro-2-(5-oxo-4-(3-(tetrahydrofuran-2-yl)-1H-pyrazol-1-yl)-6,7-dihydro-5H-pyrrolo[3,4-b]pyridin-2-yl)benzonitrile]	–	10 to 100	> 2000	0.1 to 10
N#Cc1cccc(F)c1-c1cc(-n2ccc(N3C[C@@H](O)[C@@H](O)C3)n2)c2c(n1)CNC2=O [I-109, 2-(4-(3-((3S,4R)-3,4-dihydroxypyrrolidin-1-yl)-1H-pyrazol-1-yl)-5-oxo-6,7-dihydro-5H-pyrrolo[3,4-b]pyridin-2-yl)-3-fluorobenzonitrile]	–	0.1 to 10	> 2000	0.1 to 10
CN1CC2(CCN(c3ccn(-c4cc(-c5c(F)cccc5C#N)nc5c4C(=O)NC5)n3)CC2)C1 [I-110, 3-fluoro-2-(4-(3-(2-methyl-2,7-diazaspiro[3.5]nonan-7-yl)-1H-pyrazol-1-yl)-5-oxo-6,7-dihydro-5H-pyrrolo[3,4-b]pyridin-2-yl)benzonitrile]	–	≥ 1000	> 2000	≥ 1000
CC1(C#N)CCCN(c2ccn(-c3cc(-c4c(F)cccc4C#N)nc4c3C(=O)NC4)n2)C1 (centres unmarked) [I-133, 1-(1-(2-(2-cyano-6-fluorophenyl)-5-oxo-6,7-dihydro-5H-pyrrolo[3,4-b]pyridin-4-yl)-1H-pyrazol-3-yl)-3-methylpiperidine-3-carbonitrile]	–	0.1 to 10	> 2000	0.1 to 10
C[C@@]1(O)CN(c2ccn(-c3cc(-c4c(F)cccc4C#N)nc4c3C(=O)NC4)n2)C[C@@](C)(O)C1 [I-145, 2-(4-(3-((3S,5S)-3,5-dihydroxy-3,5-dimethylpiperidin-1-yl)-1H-pyrazol-1-yl)-5-oxo-6,7-dihydro-5H-pyrrolo[3,4-b]pyridin-2-yl)-3-fluorobenzonitrile]	–	10 to 100	> 2000	0.1 to 10
CO[C@H]1CN(c2ccn(-c3cc(-c4c(F)cccc4C#N)nc4c3C(=O)NC4)n2)C[C@H]1O [I-153, 3-fluoro-2-(4-(3-((3R,4S)-3-hydroxy-4-methoxypyrrolidin-1-yl)-1H-pyrazol-1-yl)-5-oxo-6,7-dihydro-5H-pyrrolo[3,4-b]pyridin-2-yl)benzonitrile]	30 to 100	–	> 2000	0.1 to 10
N#Cc1cccc(F)c1-c1cc(-n2ccc(N3CCOC[C@H]3CO)n2)c2c(n1)CNC2=O [I-164, (R)-3-fluoro-2-(4-(3-(3-(hydroxymethyl)morpholino)-1H-pyrazol-1-yl)-5-oxo-6,7-dihydro-5H-pyrrolo[3,4-b]pyridin-2-yl)benzonitrile]	–	0.1 to 10	> 2000	0.1 to 10
N#Cc1cccc(F)c1-c1cc(-n2ccc(N3CC[C@@H](F)[C@@H](O)C3)n2)c2c(n1)CNC2=O [I-173, 3-fluoro-2-(4-(3-((3S,4R)-4-fluoro-3-hydroxypiperidin-1-yl)-1H-pyrazol-1-yl)-5-oxo-6,7-dihydro-5H-pyrrolo[3,4-b]pyridin-2-yl)benzonitrile]	–	0.1 to 10	> 2000	0.009 to 0.1
N#Cc1cccc(F)c1-c1cc(-n2cc3c(n2)CC(C(N)=O)CN3)c2c(n1)CNC2=O (centres unmarked) [I-180, 2-(2-(2-cyano-6-fluorophenyl)-5-oxo-6,7-dihydro-5H-pyrrolo-[3,4-b]pyridin-4-yl)-4,5,6,7-tetrahydro-2H-pyrazolo[4,3-b]pyridine-6-carboxamide]	–	10 to 100	> 2000	0.1 to 10
N#Cc1cccc(F)c1-c1cc(-n2ccc(N3CCC4(C3)OCC(O)CO4)n2)c2c(n1)CNC2=O (centres unmarked) [I-192, 3-fluoro-2-(4-(3-(8-hydroxy-6,10-dioxa-2-azaspiro[4.5]decan-2-yl)-1H-pyrazol-1-yl)-5-oxo-6,7-dihydro-5H-pyrrolo[3,4-b]pyridin-2-yl)benzonitrile]	–	0.1 to 10	> 2000	0.1 to 10
N#Cc1cccc(F)c1-c1cc(-c2cc3n(n2)CC(O)CN3)c2c(n1)CNC2=O (centres unmarked) [I-235, 3-fluoro-2-(4-(6-hydroxy-4,5,6,7-tetrahydropyrazolo[1,5-a]pyrimidin-2-yl)-5-oxo-6,7-dihydro-5H-pyrrolo[3,4-b]pyridin-2-yl)benzonitrile]	–	0.1 to 10	> 2000	0.1 to 10

— US10781204B2, “TYK2 inhibitors and uses thereof” (Nimbus Lakshmi, Inc., priority 2015, dated 2020)
